Test results as given in patent US12391686B2, “Compounds and uses thereof” (Foghorn Therapeutics Inc., priority 2019, dated 2025).
Like-named read-outs stand apart in the source and are kept apart here.

How the values were obtained:
[1] = target: T1, BRD9 bromodomain (Flag-BRD9 P133-K239; Swiss Prot Q9H8M2) (Homo sapiens, UniProt Q9H8M2); test: BRD9 Bromodomain TR-FRET Competition Binding Assay; conditions: competition with biotinylated BRD9 ligand; 90 minutes at room temperature
T1 construct: His-Flag-BRD9 (P133-K239); Swiss Prot Q9H8M2; His6 with TEV site (mgsshhhhhhenlyfq/) (N, cleaved yes); made in house
T1 sequence (Q9H8M2 133-239): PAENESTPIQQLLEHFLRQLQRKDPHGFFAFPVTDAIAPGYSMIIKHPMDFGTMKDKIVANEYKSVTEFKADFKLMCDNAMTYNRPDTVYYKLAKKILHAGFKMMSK
Protocol: Procedure: His-Flag-BRD9 (P133-K239; Swiss Prot Q9H8M2; SEQ ID NO:1 mgsshhhhhhenlyfq/gdykddddkgslevlfqg/[…] […]) was cloned, expressed, purified, and then treated with TEV protease. Cleaved His tag was removed by purification. The binding of a biotinylated small molecule ligand of BRD9 was assessed via the LANCE® TR-FRET platform (PerkinElmer), and the compounds were assayed for inhibitory activity against this interaction.
Results: A mixture of biotinylated-ligand and SureLight™ Allophycocyanin-Streptavidin (APC-SA, PerkinElmer AD0201) in 50 mM HEPES (pH 7.4), 50 mM NaCl, 1 mM TCEP (pH 7), 0.01% (v/v) Tween-20, 0.01% (w/v) bovine serum albumin was added to a white 384-well PerkinElmer Proxiplate Plus plate. DMSO or 3-fold serially diluted compounds were then added to the Proxiplate followed by addition of Flag-BRD9. After a 10-minute incubation at room temperature, Eu-W1024 anti-FLAG (PerkinElmer, AD0273) was added. The final reaction mixture that contained 3.75 nM biotinylated ligand, 3 nM Flag-BRD9, 7.5 nM SureLight™ Allophycocyanin-Streptavidin, and 0.2 nM Eu-W1024 anti-FLAG was incubated at room temperature for 90 minutes.
The plates were then read on a PerkinElmer Envision plate reader to determine the ratio of emission at 665 nm over 615 nm. […]

[2] = target: T2, Nanoluciferase-BRD9 fusion protein (3×FLAG-NLuc-BRD9) in SYO-1 cells (Homo sapiens, UniProt Q9H8M2); test: SYO1 BRD9 NanoLuc Degradation Assay; assay type: cell-based; conditions: SYO-1 cells expressing 3×FLAG-NLuc-BRD9, 6 hours incubation, 1 μM top dose, read-out: SYO1 BRD9-NanoLuc degradation IC50
T2 construct: expressed in transfected cells; host or cells: SYO-1
T2 sequence (Q9H8M2 1-597): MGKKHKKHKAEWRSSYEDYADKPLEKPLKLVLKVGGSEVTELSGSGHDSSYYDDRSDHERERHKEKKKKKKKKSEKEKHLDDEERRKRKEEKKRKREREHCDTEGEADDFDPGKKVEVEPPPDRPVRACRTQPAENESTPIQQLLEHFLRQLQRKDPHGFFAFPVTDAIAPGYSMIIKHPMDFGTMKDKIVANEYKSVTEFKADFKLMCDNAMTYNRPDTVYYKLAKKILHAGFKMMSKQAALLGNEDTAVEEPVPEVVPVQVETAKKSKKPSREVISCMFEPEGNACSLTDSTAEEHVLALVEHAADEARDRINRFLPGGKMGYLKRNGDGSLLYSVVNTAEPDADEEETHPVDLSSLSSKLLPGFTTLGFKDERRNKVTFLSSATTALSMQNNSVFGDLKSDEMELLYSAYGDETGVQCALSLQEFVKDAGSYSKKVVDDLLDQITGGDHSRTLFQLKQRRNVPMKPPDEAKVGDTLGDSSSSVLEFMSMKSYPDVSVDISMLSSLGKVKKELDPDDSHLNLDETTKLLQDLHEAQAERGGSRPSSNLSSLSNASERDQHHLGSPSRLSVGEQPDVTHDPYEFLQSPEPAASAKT
Procedure, shortened: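 NanoLuc signal, read by Nano-Glo luminescence after 6 h compound exposure, gives % inhibition against DMSO-treated cells (high control) and cells given 1 μM of a standard BRD9 degrader (low control). Test compounds ran as 10-point 3-fold series, top 1 μM final, in duplicate on SYO-1 cells stably expressing 3×FLAG-NLuc-BRD9.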

Row | SMILES | DC50 ([2]; Table 6B) | DC50 ([2]; Table 6C) | also measured
1 | COc1cc(-c2cn(C)c(=O)c3cnc(N)cc23)cc(OC)c1CN(C)C [Compound B4, 6-amino-4-[4-[(dimethylamino)methyl]-3,5-dimethoxyphenyl]-2-methyl-1,2-dihydro-2,7-naphthyridin-1-one] |  |  | IC50 [1]: ≥ 10 nM
2 | COc1cc(-c2cn(C)c(=O)c3cc(NCC(=O)N(C)C)ncc23)cc(OC)c1CN(C)C [Compound B6, 2-[(8-[4-[(dimethylamino)methyl]-3,5-dimethoxyphenyl]-6-methyl-5-oxo-2,6-naphthyridin-3-yl)amino]-N,N-dimethylacetamide formic acid] |  |  | IC50 [1]: ≥ 10 nM
3 | COc1cc(-c2cn(C)c(=O)c3cc(N)ncc23)cc(OC)c1CN(C)C [Compound B5, 7-amino-4-(4-((dimethylamino)methyl)-3,5-dimethoxyphenyl)-2-methyl-2,6-naphthyridin-1(2H)-one] |  |  | IC50 [1]: ≥ 10 nM
4 | CNc1cc2c(=O)n(C)cc(-c3cc(OC)c(CN(C)C)c(OC)c3)c2cn1 [Compound B3, 4-[4-[(Dimethylamino)methyl]-3,5-dimethoxyphenyl]-2-methyl-7-(methylamino)-1,2-dihydro-2,6-naphthyridin-1-one] |  |  | IC50 [1]: ≥ 10 nM
5 | COc1cc(-c2cn(C)c(=O)c3cnc(N(C)C)cc23)cc(OC)c1CN1CCC(CN2CCC3(CC2)CC(Oc2cc4c(cc2F)C(=O)N(C2CCC(=O)NC2=O)C4=O)C3)CC1 (stereo not drawn) [Compound D129] | < 10 nM |  | 
6 | COc1cc(-c2cn(C)c(=O)c3cnc(C(C)(C)CO)cc23)cc(OC)c1CN1CCC(CN2CCC3(CC2)CC(Oc2ccc4c(c2)C(=O)N(C2CCC(=O)NC2=O)C4)C3)CC1 (stereo not drawn) [Compound D190] |  | < 10 nM | 
7 | COc1cc(-c2cn(C)c(=O)c3cnc(N4CC[C@@H]4C)cc23)cc(OC)c1CN1CC(CN2CCC3(CC2)CN(c2ccc4c(c2)C(=O)N(C2CCC(=O)NC2=O)C4)C3)C1 (stereo partly drawn) [Compound D213] |  | < 10 nM | 
8 | COc1cc(-c2cn(C)c(=O)c3cnc(N(C)C)cc23)cc(OC)c1CN1CC(CCN2CCN(c3ccc4c(c3)C(=O)N(C3CCC(=O)NC3=O)C4=O)CC2)C1 (stereo not drawn) [Compound D43] | ≥ 1000 nM |  | 
9 | COc1cc(-c2cn(C)c(=O)c3cnc(C4CC4)cc23)cc(OC)c1CN1CC(C#Cc2ccc3c(c2)C(=O)N(C2CCC(=O)NC2=O)C3=O)C1 (stereo not drawn) [Compound D275] |  | < 10 nM | 
10 | COc1cc(-c2cn(C)c(=O)c3cnc(N4CC[C@@H]4C)cc23)cc(OC)c1CN1CCC(CN2CCC3(CC2)CN(c2ccc4c(c2)C(=O)N(C2CCC(=O)NC2=O)C4)C3)CC1 (stereo partly drawn) [Compound D207] |  | < 10 nM | 
11 | COc1cc(-c2cn(C)c(=O)c3cnc(N(C)C)cc23)cc(OC)c1CN1CCC(CCN2CCN(C3CCC(=O)NC3=O)C(=O)C2)CC1 (stereo not drawn) [Compound D88] | 10 to 100 nM |  | 
12 | COc1cc(-c2cn(C)c(=O)c3cnc(N(C)C)cc23)cc(OC)c1CN1CCC(CCCN2CCN(C3CCC(=O)NC3=O)C(=O)C2)CC1 (stereo not drawn) [Compound D117] | 10 to 100 nM |  | 
13 | COc1cc(-c2cn(C)c(=O)c3cnc(N4CCC4)cc23)cc(OC)c1CN1CCC(CN2CCC3(CN(c4ccc5c(c4)CN(C4CCC(=O)NC4=O)C5=O)C3)C(F)(F)C2)CC1 (stereo not drawn) [Compound D232] |  | < 10 nM | 
14 | COc1cc2c(-c3cc(OC)c(CN4CCN(CCC5CCN(c6ccc7c(c6)CN(C6CCC(=O)NC6=O)C7=O)CC5)CC4)c(OC)c3)cn(C)c(=O)c2cn1 (stereo not drawn) [Compound D224] |  | < 10 nM | 
15 | COc1cc(-c2cn(C)c(=O)c3cnc(N(C)C)cc23)cc(OC)c1CN1CC2(CC(N3Cc4cc5c(cc4C3)C(=O)N(C3CCC(=O)NC3=O)C5=O)C2)C1 (stereo not drawn) [Compound D63] | < 10 nM |  | 
16 | COc1cc(-c2cn(C)c(=O)c3cnc(N4CCC4)c(F)c23)cc(OC)c1CN1CC(CN2CCC3(CC2)CN(c2ccc4c(c2)C(=O)N(C2CCC(=O)NC2=O)C4)C3)C1 (stereo not drawn) [Compound D221] |  | < 10 nM | 
17 | CNc1cc2c(-c3cc(OC)c(CN(C)C)c(OC)c3)cn(C)c(=O)c2cn1 [Compound B1, 4-[4-[(dimethylamino)methyl]-3,5-dimethoxyphenyl]-2-methyl-6-(methylamino)-1,2-dihydro-2,7-naphthyridin-1-one] |  |  | IC50 [1]: < 10 nM

Row | SMILES | DC50 ([2]; Table 6B) | DC50 ([2]; Table 6C) | also measured
18 | COc1cc(-c2cn(C)c(=O)c3cnc(C4(C)CC4)cc23)cc(OC)c1CN1CC(Oc2ccc3c(c2)C(=O)N(C2CCC(=O)NC2=O)C3=O)C1 (stereo not drawn) [Compound D229] |  | < 10 nM | 
19 | COc1cc(-c2cn(C)c(=O)c3cnc(N(C)C)cc23)cc(OC)c1CN(C)C [Compound B2, 6-(dimethylamino)-4-[4-[(dimethylamino)methyl]-3,5-dimethoxyphenyl]-2-methyl-1,2-dihydro-2,7-naphthyridin-1-one] |  |  | IC50 [1]: < 10 nM
20 | COc1cc(-c2cn(C)c(=O)c3cnc(N(C)C)cc23)cc(OC)c1CN1CCC(CN2CCC3(CC2)CC(Oc2ccc4c(c2)CN(C2CCC(=O)NC2=O)C4=O)C3)CC1 (stereo not drawn) [Compound D103] | < 10 nM |  | 
21 | [2H]C([2H])([2H])n1cc(-c2cc(OC)c(CN3CC(Oc4ccc5c(c4)C(=O)N(C4CCC(=O)NC4=O)C5)C3)c(OC)c2)c2cc(C3CC3)ncc2c1=O (stereo not drawn) [Compound D247] |  | < 10 nM | 
22 | COc1cc(-c2cn(C)c(=O)c3cnc(N4CCOCC4)cc23)cc(OC)c1CN1CC(Oc2ccn3c(=O)n(C4CCC(=O)NC4=O)nc3c2)C1 (stereo not drawn) [Compound D144] | < 10 nM |  | 
23 | COc1cc(-c2cn(C)c(=O)c3cnc(C4CC4)cc23)cc(OC)c1CN1CCC2(CC1)CN(c1ccc3c(c1)CN(C1CCC(=O)NC1=O)C3=O)C2 (stereo not drawn) [Compound D220] |  | < 10 nM | 
24 | COc1cc(-c2cn(C)c(=O)c3cnc(N4CCC4)cc23)cc(OC)c1CN1CC(N(C)c2ccc3c(c2)C(=O)N(C2CCC(=O)NC2=O)C3)C1 (stereo not drawn) [Compound D256] |  | < 10 nM | 
25 | COc1cc(-c2cn(C)c(=O)c3cnc(N(C)C)cc23)cc(OC)c1CN1CCN([C@@H](C)COc2ccc3c(c2)C(=O)N(C2CCC(=O)NC2=O)C3=O)CC1 (stereo partly drawn) [Compound D76] | < 10 nM |  | 
26 | COc1cc(-c2cn(C)c(=O)c3cnc(N(C)C)cc23)cc(OC)c1CN1CC2(C1)CN(C(C)(C)C#Cc1ccc3c(c1)C(=O)N(C1CCC(=O)NC1=O)C3=O)C2 (stereo not drawn) [Compound D72] | < 10 nM |  | 
27 | COc1cc(-c2cn(C)c(=O)c3cnc(N(C)C)cc23)cc(OC)c1CN1CCC(CCCN2Cc3cc4c(cc3C2)C(=O)N(C2CCC(=O)NC2=O)C4=O)CC1 (stereo not drawn) [Compound D62] | < 10 nM |  | 
28 | COc1cc(-c2cn(C)c(=O)c3cnc(N(C)C)cc23)cc(OC)c1CN1CCC(CN2CCC3(CC2)CC(Oc2ccc4c(c2)C(=O)N(C2CCC(=O)NC2=O)C4=O)C3)C(OC)C1 (stereo not drawn) [Compound D130] | < 10 nM |  | 
29 | CN(C)c1cc2c(-c3cc(Cl)c(CN4CCC(CN5CCC6(CC5)CC(Oc5ccc7c(c5)C(=O)N(C5CCC(=O)NC5=O)C7=O)C6)CC4)c(Cl)c3)cn(C)c(=O)c2cn1 (stereo not drawn) [Compound D119] | 10 to 100 nM |  | 
30 | COc1cc(-c2cn(C)c(=O)c3cnc(C(C)(C)CO)cc23)cc(OC)c1CN1CCC(CN2CCC3(CC2)CC(Oc2ccc4c(c2)CN(C2CCC(=O)NC2=O)C4=O)C3)CC1 (stereo not drawn) [Compound D315] |  | < 10 nM | 
31 | COc1cc(-c2cn(C)c(=O)c3cnc(N(C)C)cc23)cc(OC)c1CN1CCC2(CC1)CC(Oc1ccc3c(c1)C(=O)N(C1CCC(=O)NC1=O)C3=O)C2 (stereo not drawn) [Compound D58] | < 10 nM |  | 
32 | COc1cc(-c2cn(C)c(=O)c3cnc(N4CCC4)cc23)cc(OC)c1CN(C)c1ccc2c(c1)CN(C1CCC(=O)NC1=O)C2=O (stereo not drawn) [Compound D202] |  | < 10 nM | 
33 | COc1cc(-c2cn(C)c(=O)c3cnc(N(C)C)cc23)cc(OC)c1CN1CCN(CCC2CCN(c3ccc4c(c3)CN(C3CCC(=O)NC3=O)C4=O)CC2)CC1 (stereo not drawn) [Compound D121] | < 10 nM |  | 
